Results as given in patent US8987267B2, “2-substituted-8-alkyl-7-OXO-7,8-dihydropyrido[2,3-D]pyrimidine-6-carbonitriles and uses thereof in treating proliferative disorders” (Temple University—of the Commonwealth System of Higher …, priority 2010, dated 2015).

What was measured:
Test in all cases: Kinase inhibition panel
Assay type in all cases: biochemical
Conditions in all cases: 10 μM ATP
[1] = target: CDK4/Cyclin D3 (Homo sapiens, UniProt P11802)
[2] = target: PDGFRb (Homo sapiens, UniProt P09619)
[3] = target: CDK9/cyclinT1 (Homo sapiens, UniProt P50750)
[4] = target: LOK/STK10 (Homo sapiens, UniProt O94804)
LOK/STK10, sequence (O94804 whole entry): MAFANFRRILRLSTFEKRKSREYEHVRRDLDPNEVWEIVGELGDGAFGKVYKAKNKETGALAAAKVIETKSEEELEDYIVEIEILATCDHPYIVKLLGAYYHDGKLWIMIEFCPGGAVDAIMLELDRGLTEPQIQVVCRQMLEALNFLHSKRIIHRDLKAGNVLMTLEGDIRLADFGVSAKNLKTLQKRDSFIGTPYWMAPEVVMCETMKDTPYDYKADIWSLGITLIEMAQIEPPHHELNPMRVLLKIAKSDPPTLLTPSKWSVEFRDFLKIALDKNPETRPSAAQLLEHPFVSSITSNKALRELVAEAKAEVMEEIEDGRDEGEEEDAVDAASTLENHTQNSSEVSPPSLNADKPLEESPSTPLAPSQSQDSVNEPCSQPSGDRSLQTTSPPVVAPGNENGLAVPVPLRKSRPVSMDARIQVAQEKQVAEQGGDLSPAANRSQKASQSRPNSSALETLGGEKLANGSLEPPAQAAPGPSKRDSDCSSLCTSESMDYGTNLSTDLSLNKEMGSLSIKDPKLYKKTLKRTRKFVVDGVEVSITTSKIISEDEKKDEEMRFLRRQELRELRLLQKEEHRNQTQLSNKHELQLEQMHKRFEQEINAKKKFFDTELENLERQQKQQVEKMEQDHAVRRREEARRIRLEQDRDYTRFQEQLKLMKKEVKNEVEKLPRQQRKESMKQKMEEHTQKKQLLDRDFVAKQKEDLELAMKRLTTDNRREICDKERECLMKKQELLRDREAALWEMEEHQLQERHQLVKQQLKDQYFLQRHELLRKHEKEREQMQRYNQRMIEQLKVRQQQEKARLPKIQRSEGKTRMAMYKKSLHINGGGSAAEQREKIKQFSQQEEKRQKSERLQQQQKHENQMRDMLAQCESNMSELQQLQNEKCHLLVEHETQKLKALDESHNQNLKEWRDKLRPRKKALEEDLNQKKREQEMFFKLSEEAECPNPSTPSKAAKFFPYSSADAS
Procedure: (§1) The compounds in Table 4 were tested for the ability to inhibit the kinase activity of the listed protein kinases.

[5] = target: FLTINEGFRI (Homo sapiens, UniProt P17948)
Procedure: as §1

[6] = target: TAOK2ITA01 (Homo sapiens, UniProt Q9UL54)
TAOK2ITA01, sequence (Q9UL54 whole entry): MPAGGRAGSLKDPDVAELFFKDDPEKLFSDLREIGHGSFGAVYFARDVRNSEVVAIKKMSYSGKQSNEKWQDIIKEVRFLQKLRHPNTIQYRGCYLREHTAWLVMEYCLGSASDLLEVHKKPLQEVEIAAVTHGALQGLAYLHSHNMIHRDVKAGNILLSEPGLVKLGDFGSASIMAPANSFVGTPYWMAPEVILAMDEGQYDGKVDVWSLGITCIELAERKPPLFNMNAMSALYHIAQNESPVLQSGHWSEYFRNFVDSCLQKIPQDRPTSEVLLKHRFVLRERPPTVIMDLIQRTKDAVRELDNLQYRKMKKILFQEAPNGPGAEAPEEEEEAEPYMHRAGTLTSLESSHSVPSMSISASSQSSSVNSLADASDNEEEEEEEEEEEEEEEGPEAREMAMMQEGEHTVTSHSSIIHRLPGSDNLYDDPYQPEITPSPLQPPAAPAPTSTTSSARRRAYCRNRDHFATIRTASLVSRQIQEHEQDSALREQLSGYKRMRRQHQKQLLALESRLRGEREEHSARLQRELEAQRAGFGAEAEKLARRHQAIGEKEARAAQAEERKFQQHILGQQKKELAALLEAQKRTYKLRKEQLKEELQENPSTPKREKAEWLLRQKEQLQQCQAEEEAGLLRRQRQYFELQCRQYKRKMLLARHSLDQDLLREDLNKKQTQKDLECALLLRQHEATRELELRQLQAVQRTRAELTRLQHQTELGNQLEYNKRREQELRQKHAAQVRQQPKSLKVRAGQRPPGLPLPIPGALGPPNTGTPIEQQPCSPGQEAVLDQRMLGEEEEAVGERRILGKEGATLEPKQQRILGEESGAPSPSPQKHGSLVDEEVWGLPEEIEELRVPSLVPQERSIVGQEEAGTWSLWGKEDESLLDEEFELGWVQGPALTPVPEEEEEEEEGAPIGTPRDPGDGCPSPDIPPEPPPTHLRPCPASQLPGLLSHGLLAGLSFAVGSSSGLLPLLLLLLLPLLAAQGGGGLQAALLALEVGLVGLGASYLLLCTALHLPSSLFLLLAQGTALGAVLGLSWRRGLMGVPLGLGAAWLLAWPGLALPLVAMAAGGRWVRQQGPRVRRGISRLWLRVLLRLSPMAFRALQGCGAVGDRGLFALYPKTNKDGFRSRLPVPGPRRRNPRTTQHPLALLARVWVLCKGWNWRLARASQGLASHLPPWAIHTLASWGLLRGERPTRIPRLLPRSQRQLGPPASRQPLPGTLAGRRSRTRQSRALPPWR
Procedure: as §1

[7] = target: RIPK2 (Homo sapiens, UniProt O43353)
Procedure: as §1

[8] = target: ABL1 (Homo sapiens, UniProt P00519)
Procedure: as §1

[9] = target: TGFbR2 (Homo sapiens, UniProt P37173)
TGFbR2, sequence (P37173 23-567, species assumed): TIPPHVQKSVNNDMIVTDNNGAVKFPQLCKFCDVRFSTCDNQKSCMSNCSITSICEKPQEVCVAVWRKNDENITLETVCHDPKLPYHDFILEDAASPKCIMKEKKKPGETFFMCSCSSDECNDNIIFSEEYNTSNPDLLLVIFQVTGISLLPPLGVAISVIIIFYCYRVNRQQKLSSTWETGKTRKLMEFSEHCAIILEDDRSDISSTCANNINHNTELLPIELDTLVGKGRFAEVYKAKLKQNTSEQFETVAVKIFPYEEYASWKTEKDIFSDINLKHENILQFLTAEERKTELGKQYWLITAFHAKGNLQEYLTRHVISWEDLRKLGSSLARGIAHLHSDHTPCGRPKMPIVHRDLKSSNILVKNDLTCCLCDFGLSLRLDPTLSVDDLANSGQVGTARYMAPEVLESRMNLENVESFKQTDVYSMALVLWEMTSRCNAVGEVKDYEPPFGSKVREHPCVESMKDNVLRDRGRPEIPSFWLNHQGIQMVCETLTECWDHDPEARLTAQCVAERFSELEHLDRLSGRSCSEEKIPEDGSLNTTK
Procedure: as §1

[10] = target: EphB4 (Homo sapiens, UniProt P54760)
EphB4, sequence (P54760 16-987, species assumed): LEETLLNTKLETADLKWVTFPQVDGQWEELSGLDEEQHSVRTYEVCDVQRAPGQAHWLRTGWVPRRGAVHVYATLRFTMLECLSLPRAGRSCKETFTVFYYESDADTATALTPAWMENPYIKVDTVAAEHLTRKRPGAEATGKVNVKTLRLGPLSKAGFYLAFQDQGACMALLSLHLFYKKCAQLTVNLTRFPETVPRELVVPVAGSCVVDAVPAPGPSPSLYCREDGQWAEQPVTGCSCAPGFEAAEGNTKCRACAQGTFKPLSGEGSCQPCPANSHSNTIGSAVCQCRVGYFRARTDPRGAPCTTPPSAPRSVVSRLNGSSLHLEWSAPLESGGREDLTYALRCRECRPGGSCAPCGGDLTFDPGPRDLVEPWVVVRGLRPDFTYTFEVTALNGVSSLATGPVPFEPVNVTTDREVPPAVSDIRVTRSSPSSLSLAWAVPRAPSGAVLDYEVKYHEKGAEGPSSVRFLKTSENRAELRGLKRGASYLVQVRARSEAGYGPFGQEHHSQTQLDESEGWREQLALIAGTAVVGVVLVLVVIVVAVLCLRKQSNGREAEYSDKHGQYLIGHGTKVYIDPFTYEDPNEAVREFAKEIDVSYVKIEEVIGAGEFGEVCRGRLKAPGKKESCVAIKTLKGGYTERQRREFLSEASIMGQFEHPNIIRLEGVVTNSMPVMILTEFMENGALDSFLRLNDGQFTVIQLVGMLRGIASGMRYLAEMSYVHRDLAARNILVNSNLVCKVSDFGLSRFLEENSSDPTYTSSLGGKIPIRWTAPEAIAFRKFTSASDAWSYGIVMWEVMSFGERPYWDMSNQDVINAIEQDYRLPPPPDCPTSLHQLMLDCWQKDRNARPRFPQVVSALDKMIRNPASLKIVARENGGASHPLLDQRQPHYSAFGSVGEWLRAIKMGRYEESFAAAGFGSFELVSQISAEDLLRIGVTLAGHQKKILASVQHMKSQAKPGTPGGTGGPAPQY
Procedure: as §1

[11] = target: CDK6/cyclinD1 (Homo sapiens, UniProt Q00534)
Procedure: as §1

[12] = target: CDK5/p25 (Homo sapiens, UniProt Q00535)
Procedure: as §1

[13] = target: CDK4/Cyclin D1 (Homo sapiens, UniProt P11802)
Procedure: as §1

[14] = target: CDK9/cyclin K (Homo sapiens, UniProt P50750)
Procedure: as §1

[15] = target: EPHA1 (Homo sapiens, UniProt P21709)
Procedure: as §1

[16] = target: CDK3/cyclinE (Homo sapiens, UniProt Q00526)
Procedure: as §1

[17] = target: CDK5/p35 (Homo sapiens, UniProt Q00535)
Procedure: as §1

[18] = target: LYNB (Homo sapiens, UniProt P07948)
Procedure: as §1

[19] = target: LIMK1 (Homo sapiens, UniProt P53667)
Procedure: as §1

[20] = target: SIK2/SNF1LK2 (Homo sapiens, UniProt Q9H0K1)
SIK2/SNF1LK2, sequence (Q9H0K1 whole entry): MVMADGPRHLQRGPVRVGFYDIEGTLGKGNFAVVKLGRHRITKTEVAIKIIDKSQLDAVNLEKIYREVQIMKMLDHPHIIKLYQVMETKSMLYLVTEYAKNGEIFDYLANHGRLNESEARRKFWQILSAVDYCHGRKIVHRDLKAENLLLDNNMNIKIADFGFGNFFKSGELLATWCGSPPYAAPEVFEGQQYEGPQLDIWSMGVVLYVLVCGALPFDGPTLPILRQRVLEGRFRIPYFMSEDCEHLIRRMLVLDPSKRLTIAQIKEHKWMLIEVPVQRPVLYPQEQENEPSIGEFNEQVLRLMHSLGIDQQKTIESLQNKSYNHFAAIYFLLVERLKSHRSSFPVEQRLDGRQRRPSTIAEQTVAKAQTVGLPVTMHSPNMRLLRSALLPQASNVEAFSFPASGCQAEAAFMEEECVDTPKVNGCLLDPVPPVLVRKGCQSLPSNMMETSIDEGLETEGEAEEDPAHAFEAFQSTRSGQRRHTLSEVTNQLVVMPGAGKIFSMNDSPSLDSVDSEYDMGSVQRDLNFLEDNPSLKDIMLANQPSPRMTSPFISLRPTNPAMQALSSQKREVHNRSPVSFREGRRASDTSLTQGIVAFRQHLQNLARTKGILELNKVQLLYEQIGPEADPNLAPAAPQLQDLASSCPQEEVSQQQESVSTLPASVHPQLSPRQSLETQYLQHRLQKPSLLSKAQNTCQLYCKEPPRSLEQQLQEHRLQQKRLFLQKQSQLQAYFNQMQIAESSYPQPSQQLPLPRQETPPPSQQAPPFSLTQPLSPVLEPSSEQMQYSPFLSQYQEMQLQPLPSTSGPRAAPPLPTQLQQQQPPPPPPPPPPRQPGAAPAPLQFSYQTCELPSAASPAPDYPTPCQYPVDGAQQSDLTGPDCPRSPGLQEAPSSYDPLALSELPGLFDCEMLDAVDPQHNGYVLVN
Procedure: as §1

[21] = target: CDK2/cyclinA (Homo sapiens, UniProt P24941)
Procedure: as §1

[22] = target: TAOK1 (Homo sapiens, UniProt Q7L7X3)

## CN1CCN(c2ccc(Nc3ncc4cc(C#N)c(=O)n(C5CCCC5)c4n3)cc2)CC1 [Compound 12, 8-cyclopentyl-2-((4-(4-methylpiperazin-1-yl)phenyl)amino)-7-oxo-7,8-dihydropyrido[2,3-d]pyrimidine-6-carbonitrile]
[1]
  IC50: 21.2 nM
[2]
  IC50: 2.64 nM
[3]
  IC50: 85.4 nM
[4]
  IC50: 181 nM
[5]
  IC50: 94.1 nM
[6]
  IC50: 69.6 nM
[7]
  IC50: 40.8 nM
[8]
  IC50: 75.6 nM
[9]
  IC50: 62.3 nM
[10]
  IC50: 120 nM
[11]
  IC50: 18.4 nM
[12]
  IC50: 264 nM
[13]
  IC50: 4 nM
[14]
  IC50: 27.1 nM
[15]
  IC50: 37.1 nM
[16]
  IC50: 3220 nM
[17]
  IC50: 181 nM
[18]
  IC50: 6650 nM
[19]
  IC50: 70.8 nM
[20]
  IC50: 96.8 nM
[21]
  IC50: 97.3 nM
[22]
  IC50: 78.7 nM
